Read-outs that look alike come from different tables or passages of the source.

In one data set the test system is H1299 cells. Description: Anti-proliferative effect on H1299 cells by Cell Titer-Glo. It counts as cell-based. The conditions noted are these: 3 days. The method, then: (§1) Test Example 2: Evaluation of Cell Proliferation Inhibitory Activity
1. Evaluation of the Anti-Proliferative Effect of Compounds on H1299 Cells by the Cell Titer-Glo Method
(§2) Compound solutions of different concentration gradients were prepared. […] The cell growth group without compound was used as a positive control (maximum signal control) and the medium was used as a negative control (minimum signal control), while ensuring that the final level of DMSO in each reaction well was 0.2%. After removing the medium from the 384-well plate, 25 ul of the configured compound at different concentrations was transferred into the well plate and the compound and cells were incubated in the cell incubator at 37° C. with 5% CO2 for 3 days.
The 384-well plates were removed from the cell incubator and allowed to equilibrate for 1h to room temperature. 25 ul of Cell Titer-Glo assay was added to each well, lysed on a shaker for 2 min and then read out (Luminescence) using a BMG PHERAStar after 10 min incubation. Calculate the inhibition rate from the luminescence signal: first calculate the average of the positive control (maximum signal control) and the negative control (minimum signal control).
was used to calculate the rate of inhibition of the cells by different concentrations of the compounds. The IC50 of the compound on cell activity inhibition was calculated by fitting a log(inhibitor) vs. response-Variable slope model to GraphPad Prism 6. The fitted equation was: Y=Bottom+(Top−Bottom)/(1+10^((Log IC50−X)*HillSlope)), where Y represents the rate of inhibition and X represents the concentration of the known compound after Log.
(§3) The results of the in vitro anti-cell proliferation assays of H1299 and MIA Paca-2 for the example compounds according to the method described above are shown in Table 2, wherein the IC50 of each compound was determined and classified according to the description as follows: […]
(In general: Cellular ATP, detected with luciferase, serves as a proxy for viable cell number.)

Another data set has as its system MIA PaCa2 cells. Description: Anti-proliferative effect on MIA PaCa2 cells by Cell Titer-Glo. Type of data set: cell-based. The conditions noted are these: Homo sapiens, MIA PaCa-2, 72 h, 3 days, read-out: MIA PaCa 2 (IC50, inhibition of proliferation in vitro). As to the method: as §1
2. Evaluation of the Anti-Proliferative Effect of Compounds on MIA PaCa2 Cells by the Cell Titer-Glo Method
as §2
The 384-well plates were removed from the cell incubator and allowed to equilibrate for 1 h to room temperature. 25 ul of Cell Titer-Glo assay was added to each well, lysed on a shaker for 2 min and then read out (Luminescence) using a BMG PHERAStar after 10 min incubation. Calculate the inhibition rate from the luminescence signal: first calculate the average of the positive control (maximum signal control) and the negative control (minimum signal control).
was used to calculate the rate of inhibition of the cells by different concentrations of the compounds. The IC50 of the compound on cell activity inhibition was calculated by fitting a log(inhibitor) vs. response-Variable slope model to GraphPad Prism 6. The fitted equation was: Y=Bottom+(Top-Bottom)/(1+10^((Log IC50−X)*HillSlope)), wherein Y represents the rate of inhibition and X represents the concentration of the known compound after Log.
as §3

For a further data set, the target named is T1, Wee1 protein (Homo sapiens, UniProt P30291).
T1 construct: purchased Thermo Fisher PR7373A
T1 sequence (P30291 whole entry): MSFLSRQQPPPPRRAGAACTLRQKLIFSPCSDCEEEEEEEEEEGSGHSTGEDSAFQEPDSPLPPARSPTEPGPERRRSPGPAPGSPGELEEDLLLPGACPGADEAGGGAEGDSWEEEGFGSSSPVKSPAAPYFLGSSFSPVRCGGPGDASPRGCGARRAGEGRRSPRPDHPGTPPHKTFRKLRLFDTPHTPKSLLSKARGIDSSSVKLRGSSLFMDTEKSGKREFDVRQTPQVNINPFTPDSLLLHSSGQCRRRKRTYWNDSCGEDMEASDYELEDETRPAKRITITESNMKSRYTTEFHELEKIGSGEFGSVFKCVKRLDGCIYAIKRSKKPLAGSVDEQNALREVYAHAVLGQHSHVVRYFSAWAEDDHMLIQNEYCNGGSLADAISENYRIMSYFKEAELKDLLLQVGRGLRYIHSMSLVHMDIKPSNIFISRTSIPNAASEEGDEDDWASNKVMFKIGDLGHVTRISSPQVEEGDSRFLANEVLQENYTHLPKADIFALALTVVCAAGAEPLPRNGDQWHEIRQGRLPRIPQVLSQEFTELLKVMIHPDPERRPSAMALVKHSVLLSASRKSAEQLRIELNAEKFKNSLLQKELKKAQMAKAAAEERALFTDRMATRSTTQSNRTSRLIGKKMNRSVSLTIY
The data set is described as follows: Binding of compound to Wee1 protein and Tracer 178 by TR-FRET (Wee1 kinase inhibitory activity). The note with it: 15 nM WEE1, 50 nM Tracer 178, read-out: IC50 (inhibitory activity against Wee1 kinase). The method, then:
First, solutions of the compounds in different concentration gradients were prepared. The compounds were dissolved in DMSO and the compounds were diluted 4 folds with a total of 10 dose points and 2 parallel replicates for each concentration.
The IC50 for inhibition of enzyme activity by the compounds was then calculated using GraphPad Prism 6 and fitted with a log (inhibitor) vs. response-Variable slope mode. The fitting equation was: Y=Bottom+(Top−Bottom)/(1+10^((Log IC50−X)*HillSlope)), wherein Y represents the percentage of residual enzyme activity known and X represents the known concentration of compound after the logarithm.
Background: Time-resolved FRET reads energy transfer from a long-lived donor to a nearby acceptor.

A short description of data set [1]: Liver microsomes in vitro stability (mouse). It counts as in vitro ADME. The note with it: read-out: T1/2/min. As to the method:
1. Preparation of Working Solution:
Microsomes were taken out from the −80° C. refrigerator, rapidly melted in a 37° C. water bath and placed on ice until ready to use. The test article was diluted with DMSO to prepare a 10 mM stock solution, and then diluted with acetonitrile to a 0.5 mM secondary stock solution. […] NADPH was diluted with Buffer C to a working solution of 6 mM for the starter solution. An acetonitrile solution containing an internal standard was prepared as the precipitant, and Verapamil-HCl was chosen as the internal standard at a concentration of 4 ng/ml.
2. Experimental Procedure:
A round-bottom well plate was taken, noted as the reaction plate, and the prepared working solution for each compound was dispensed into the well plate according to the number of replicates and time points (0 h samples were also added to the reaction plate), 30 μL/well; the plate was incubated at 37° C. for 10 min. A separate plate with pointed bottom wells, noted as a precipitation plate, was added with 135 μL precipitant per well; 0 h samples were transferred to the plate after 10 min incubation and 15 μL of starter solution was added; the plate was placed on ice before centrifugation.
The diluted starter solution was added in sufficient quantity to the dispensing plate to facilitate the multichannel pipette aspiration operation.
The reaction was carried out on a warm incubation shaker and 15 μL of starter solution/sample is added to the plate using a multichannel pipette. The reaction was mixed with a slight shake to initiate the reaction, which was accurately timed and recorded using a timer. In general, samples with shorter reaction times are initiated late and vice versa early, allowing sufficient time for multiple plate manipulation to terminate the reaction. For example, as for the four experiments of 5, 15, 30, and 60 min, the 60 min experiment was started first, and the 5 min experiment was started later, so as to leave sufficient time for the 5 min group.
After the reaction time had elapsed, all the solution in the plate was aspirated using the multichannel pipette and added to the precipitation plate to terminate the reaction at that point in time. After all reactions had been terminated, the plates were shaken for ten minutes on a plate shaker at 600 rpm to precipitate the protein. The plate was centrifuged at 4° C. for 15 minutes at maximum rpm. 80 μL of supernatant was taken, 320 μL of pure water was added and mixed for LC-MS analysis.

Where [2] appears, read: Homo sapiens, NCI-H1299, 72 h, read-out: H1299 (IC50, inhibition of proliferation in vitro).

Consider `C=CCn1c(=O)c2cnc(Nc3ccc(N4CC5CC(C4)N5C)cc3)nc2n1-c1cccc(C(C)(C)OC)n1` [Compound 60], for which the IC50 lay within 100 to 1000 nM in the data set on H1299 cells (setting [2]), 100 to 1000 nM in the data set with MIA PaCa2 cells and 5 to 10 nM at Wee1 protein.
As to `C=CCn1c(=O)c2cnc(Nc3ccc(N4CC5CC(C4)N5C)cc3)nc2n1-c1ccc2cnn(CC)c2n1` [Compound 61], the IC50 is 2000 to 5000 nM in the data set with H1299 cells (listed as Compound61, read-out: H1299 (IC50, inhibition of proliferation in vitro)) and under 5 nM at Wee1 protein. In data set [1], the half-life at 1 µM is over 2 h.
Take `C=CCn1c(=O)c2cnc(Nc3ccc(N4CC5CC(C4)N5C4CN(C)C4)cc3)nc2n1-c1cccc(C(C)(C)O)n1` [Compound 63]: the IC50 in the data set on H1299 cells (setting [2]) is over 10000 nM; with MIA PaCa2 cells it was over 10000 nM; at Wee1 protein, 1000 to 10000 nM.
Consider `C=CCN1C2CC1CN(c1ccc(Nc3ncc4c(=O)n(CC=C)n(-c5cccc(C(C)(C)O)n5)c4n3)cc1)C2` [Compound 64], for which the IC50 was in the range of 100 to 1000 nM with H1299 cells (setting [2]), 100 to 1000 nM with MIA PaCa2 cells and 10 to 100 nM on Wee1 protein.
Turning to `C=CCn1c(=O)c2cnc(Nc3ccc(N4CC5CC(C4)N5CC)cc3)nc2n1-c1cccc(C(C)(C)O)n1` [Compound 65], the IC50 in the data set on H1299 cells (setting [2]) is 100 to 1000 nM; in the data set with MIA PaCa2 cells, 100 to 1000 nM; at Wee1 protein, 5 to 10 nM.
Turning to `C=CCn1c(=O)c2cnc(Nc3ccc(N4CC5CC(C4)N5CCO)cc3)nc2n1-c1cccc(C(C)(C)O)n1` [Compound 66], the results for the IC50 in the data set with H1299 cells (setting [2]), in the data set on MIA PaCa2 cells and at Wee1 protein were 100 to 1000 nM, 100 to 1000 nM and 5 to 10 nM, respectively.
As to `C=CCn1c(=O)c2cnc(Nc3ccc(N4CC5CC(C4)N5CCOC)cc3)nc2n1-c1cccc(C(C)(C)O)n1` [Compound 67], the IC50 in the data set on H1299 cells (setting [2]) was 100 to 1000 nM; in the data set on MIA PaCa2 cells, at most 100 nM; on Wee1 protein it was 5 to 10 nM.
As for `C=CCn1c(=O)c2cnc(Nc3ccc(N4CC5CC(C4)N5C(C)=O)cc3)nc2n1-c1cccc(C(C)(C)O)n1` [Compound 68], the results for the IC50 in the data set on H1299 cells (setting [2]), with MIA PaCa2 cells and on Wee1 protein were 1000 to 2000 nM, 100 to 1000 nM and 10 to 100 nM, respectively.
For `C=CCn1c(=O)c2cnc(Nc3ccc(N4CCN(C)CC4)cc3)nc2n1-c1ccc2c(n1)OC(C)(C)CO2` [Compound 74], in that order: over 10000 nM, over 10000 nM and 10 to 100 nM.
For `C=CCn1c(=O)c2cnc(Nc3ccc(N4C[C@@H]5C[C@H]4CN5C)cc3)nc2n1-c1ccc2ccn(CC)c2n1` [Compound 76], in that order: 100 to 1000 nM, 1000 to 2000 nM and 10 to 100 nM.
On to `C=CCn1c(=O)c2cnc(Nc3ccc(C4CCN(C)CC4)cc3)nc2n1-c1ccc2ccn(CC)c2n1` [Compound 77], for which the results for the IC50 with H1299 cells (setting [2]), in the data set with MIA PaCa2 cells and on Wee1 protein were 1000 to 2000 nM, 1000 to 2000 nM and 5 to 10 nM, respectively.
Turning to `C=CCn1c(=O)c2cnc(Nc3ccc(N4CC5CC(C4)N5C)c(F)c3)nc2n1-c1cccc(C(C)(C)O)n1` [Compound 78], the results for the IC50 with H1299 cells (setting [2]), with MIA PaCa2 cells and at Wee1 protein were over 10000 nM, 1000 to 2000 nM and 10 to 100 nM, respectively.

(Values after patent publication US20250034151A1, “WEE1 INHIBITOR, PREPARATION THEREFOR, AND USE THEREOF” (JIANGSU TASLY DIYI PHARMACEUTICAL CO., LTD., priority 2022, published 2025).)
